This note sets out measurements from patent US5219825A, “Synergistic herbicidal compositions comprising herbicides which generate toxic oxygen radicals and chelating agents which inhibit their detoxification” (Yeda Research and Development Co., Ltd., priority 1986, dated 1993).

The assay deals with leaves. Description: Blocked chelate controls tested for synergism with paraquat. Type of assay: in vivo. The text has this:
The commercial fungicides, maneb [manganese ethylene-bis(dithiocarbamate) (polymeric)] and zineb [zinc ethylene-bis (dithiocarbamate) (polymeric)] were used, they have similar structures and effects as DDC, but are blocked and act as chelate controls […] to clarify that a synergism would be due to the chelating effect of diethyldithiocarbamate. […] They could not chelate copper due to their being blocked.

For the substance “zinc ethylene-bis (dithiocarbamate) (polymeric) [zineb]”, the “synergistic effects with paraquat” value is “Neither maneb nor zineb had synergistic effects with paraquat”.
